From article PMC10454396 (International Journal of Molecular Sciences, 2023)
Where two headings read alike, the source gives them in different places.

Assays:
[1] = system: mCherry-expressing S. aureus Newman; assay: Zebrafish embryo model of S. aureus yolk infection, antibiotic treatment efficacy; format: in vivo, Staphylococcus aureus
Procedure: With the aim to study the in vivo efficacy of drugs, 30 hpf zebrafish embryos were infected with 50 CFU of mCherry-expressing S. aureus Newman. Embryos were then left to recover from injection for two hours and subsequently treated with various reference antibiotics. Antibiotic treatment was performed via bath water immersion as well as via microinjection into the yolk (local treatment) and the caudal vein (systemic treatment) to study whether differences in in vivo activity exist between the three administration routes. Survival was assessed daily until 120 hpf. Additionally, the infection was visualized and quantified by means of fluorescence microscopy at 24 h post treatment (hpt). At the end of every experiment, living embryos (and dead embryos, if possible) were homogenized to determine the remaining bacterial count. Five approved antibiotics from different classes were assessed in vivo. The chosen drugs ought to differ in physicochemical properties, such as molecular weight and polarity, in order to detect a pattern between successful administration routes and the physicochemical properties of the drug. Prior to efficacy assessment, drug-mediated toxicity in zebrafish embryos was investigated using the same administration routes (Figure S3). For microinjection, a fixed dose of 20 to 30 mg/kg was used for each antibiotic. The concentration for bath water immersion was based on the minimum inhibitory concentration (MIC) and the maximum tolerated concentration (MTC) of the drug, whereby it is generally recommended to use 50- to 100-fold the antibacterial MIC to see a positive effect.
Pulled glass capillaries for microinjection (Table S2) were prepared using a micropipette puller (P-1000, Sutter Instrument). Dechorionated and anaesthetized embryos were infected with 50 colony-forming units (CFU) of mCherry-expressing S. aureus Newman by microinjection into the yolk sac at 30 hpf. In order to confirm bacterial numbers, an equal volume of bacterial cells was ejected onto Tryptic Soy Agar (TSA) supplemented with 10 µg/mL chloramphenicol before and after the injection. Antibiotic treatment was performed two hours post infection (hpi) via three different administration routes, namely bath water immersion and microinjection into the yolk sac as well as the caudal vein (CV). The infection procedure and treatment of infected embryos are described in details in the supplementary materials (Table S3).
Embryos were transferred individually to microcentrifuge tubes and washed at least three times with sterile PBS. 200 µL of sterile PBS were added and embryos were mechanically homogenized using a micropestle (Carl Roth, Karlsruhe, Germany). 800 µL of sterile PBS were added to reach a final volume of 1 mL. The homogenates were diluted and plated on tryptic soy agar (TSA). CFU counts were determined after 24 h of incubation at 37 °C.
Embryos were placed in a black 96-well plate (Falcon; Thermo Fisher, Dreieich, Germany) and cryo-anaesthetized by submersion into ice water. Images for quantitative fluorescence analysis were acquired using the following equipment: a fluorescence stereo microscope (M205 FA, Leica Microsystems, Wetzlar, Germany) in combination with a fluorescence illuminator (X-Cite, 200DC, Excelitas Technologies, Waltham, MA, USA) and a microscope camera (DFC7000 T, Leica Microsystems). Quantification of fluorescence was performed using Fiji ImageJ version 2.1.0. Fluorescent Integrated Density (FID) was determined by counting the number of pixels with fluorescence intensity greater than the threshold (10) and multiplying the count with its mean intensity. For confocal imaging, embryos were anaesthetized through immersion in tricaine (945 µM, Sigma-Aldrich) and immobilized in 1.2% low-melting agarose in a flat-bottom 96-well plate. Confocal images and time-lapse series were acquired using the Celldiscoverer 7 with LSM 900 (Zeiss) together with the 5×/0.35 Plan-APOCHROMAT objective.
2. […]

zebrafish embryos = assay: Toxicity of antimicrobials on zebrafish embryos; format: in vivo, Danio rerio
Procedure: Toxicity of antibiotics was assessed by aquatic exposure and microinjection. For evaluation of the maximum tolerated concentration (MTC) by aquatic exposure, embryos were dechorionated at 30 hpf and placed in a flat-bottom 96-well plate (Sarstedt) with one embryo per well. Excess medium was removed and 150 µL of compound dilutions (in 0.3× Danieau’s, maximum of 1% DMSO) were added. For each antibiotic, a range of concentrations was investigated. Ten embryos were used per concentration and ten additional embryos incubated in fish medium without any antibiotic served as negative control. Microinjection of antibiotics into the caudal vein (CV) and the yolk sac was performed as described earlier. PBS-injected embryos served as negative control. Exposed embryos were maintained at 28 °C throughout the whole experiment. Embryos were monitored daily under a stereo microscope (Stemi 508, Zeiss) in order to record survival as well as anomalies, pigmentation, heartbeat and locomotor responses. An embryo was considered dead when no heart beat could be observed.

[2] = Plasma protein binding (RED), rat plasma; format: in vitro ADME; details: Wistar, pooled plasma, pH 7.4, rat plasma
Procedure: Plasma protein binding was determined using the Rapid Equilibrium Dialysis (RED) system (Thermo Fisher Scientific, Waltham, MA, USA). The compound was diluted in pooled murine (CD-1)/human or Wistar rat plasma (Neo Biotech, Nanterre, France) to 10 µM and added to the respective chamber according to the manufacturer’s protocol, followed by addition of PBS pH 7.4 to the opposite chamber. Samples were taken immediately after addition to the plate as well as after 2, 4 and 5 h by mixing 10 µL with 80 µL ice-cold acetonitrile containing 12.5 nM diphenhydramine as internal standard, followed by addition of 10 µL plasma to samples taken from PBS and vice versa. Samples were stored on ice until the end of the incubation and precipitated protein was removed by centrifugation (15 min, 4 °C, 4000× g, 2 centrifugation steps). Concentration of the remaining test compound at the different time points was analyzed by HPLC-MS/MS (TSQ Altis Plus, Thermo Fisher, Dreieich, Germany). The amount of compound bound to protein was calculated using the equation PPB [%] = 100 − 100 × (amount in buffer chamber/amount in plasma chamber).

C/C(=C\[C@H](C)CCCCC(=O)O)[C@@H]1O[C@@H]2C=C[C@H]1OC(=O)\C=C/C=C\C=C\[C@H]1O[C@@H]3C[C@H]1O[C@@H](/C=C/C[C@H]1O[C@H](C[C@H](O)[C@H]1C)[C@@H](O)[C@@H](O)/C=C/CC/C=C/C2)[C@@H]3C [sorangicin A]
effect on survival of infected embryos ([1]; bath water immersion 50-100x MIC): did not show any protective effect | difference between treated and untreated embryos ([1]; bath water supplemented with 1000x MIC): no difference | bacterial fluorescence (FID) at 24 hpt ([1]; caudal vein microinjection): Bacterial fluorescence was suppressed | embryos succumbed to the infection ([1]; caudal vein microinjection 2 hpi, 50 CFU yolk infection): 75% | effect on survival of infected embryos ([1]; caudal vein microinjection 20-30 mg/kg, 2 hpi): significantly extended the lifespan | bacterial numbers ([1]; caudal vein microinjection, succumbed embryos): exceeding 10^4 CFU/embryo | bacteria recovered (CFU plating) at 120 hpf ([1]; yolk microinjection): complete eradication of bacteria | bacterial fluorescence (FID) at 24 hpt ([1]; yolk microinjection): reduced bacterial burden | effect on survival of infected embryos ([1]; yolk microinjection 20-30 mg/kg, 2 hpi): significantly increased the survival rate | reduction in embryo survival with respect to control (1% DMSO) (zebrafish embryos; long-term aquatic exposure, 200 µg/mL): 10% | tolerability of injection dose (zebrafish embryos; microinjection 30 mg/kg): well-tolerated | well-tolerated concentration (zebrafish embryos; short- and long-term aquatic exposure): up to 100 µg/mL | fraction unbound at 10 µM ([2]; 10 µM, read-out: PPB (converted)): 0.112 | fraction unbound at 10 µM ([2]; read-out: free fraction): > 0.1
